Results published in patent publication US9580449B2, “Compositions and methods for the production of pyrimidine and pyridine compounds with BTK inhibitory activity” (Merck Patent GmbH, priority 2011, dated 2017).

target: full-length human BTK (Homo sapiens (Human), UniProt Q06187); assay: BTK IC50 enzyme assay (microfluidic off-chip mobility shift kinase assay); assay type: biochemical; settings: incubated for 90 min. at 27 C; read-out: Time Dependent BTK Enzyme Assay IC50
How it was run: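 Read-out separates phosphorylated peptide product from substrate by charge/mass in a mobility shift format with full-length human BTK.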

Sequence of full-length human BTK (Q06187 whole entry): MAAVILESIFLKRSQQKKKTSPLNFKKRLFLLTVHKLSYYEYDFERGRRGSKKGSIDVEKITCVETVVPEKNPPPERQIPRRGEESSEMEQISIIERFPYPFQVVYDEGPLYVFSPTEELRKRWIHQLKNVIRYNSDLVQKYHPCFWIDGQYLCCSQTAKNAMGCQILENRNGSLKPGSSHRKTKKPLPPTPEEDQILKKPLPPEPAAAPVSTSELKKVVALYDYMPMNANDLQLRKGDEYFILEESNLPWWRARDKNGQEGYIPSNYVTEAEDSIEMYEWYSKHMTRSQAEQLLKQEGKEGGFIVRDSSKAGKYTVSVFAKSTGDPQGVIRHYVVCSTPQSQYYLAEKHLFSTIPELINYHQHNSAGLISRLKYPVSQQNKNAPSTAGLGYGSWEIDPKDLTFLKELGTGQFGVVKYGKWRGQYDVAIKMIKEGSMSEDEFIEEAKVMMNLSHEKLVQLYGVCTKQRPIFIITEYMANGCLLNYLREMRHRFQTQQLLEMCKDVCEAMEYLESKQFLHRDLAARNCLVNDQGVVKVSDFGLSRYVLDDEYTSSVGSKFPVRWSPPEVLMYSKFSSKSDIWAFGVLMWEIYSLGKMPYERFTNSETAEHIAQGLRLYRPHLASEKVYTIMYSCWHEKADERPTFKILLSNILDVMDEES

Question: With C=CC(=O)Nc1ccc(Oc2ccncc2-c2ccc(Oc3ccccc3)cc2)cc1 [A297, N-(4-((3-(4-phenoxyphenyl)pyridin-4-yl)oxy)phenyl)acrylamide] as the molecule, how does the IC50 read?
Answer: The IC50 was over 1000 nM.

Question: C=CC(=O)NC1CCCN(c2ncnc(N)c2-c2ccc(Oc3ccccc3)cc2)C1 (stereo not drawn) [A298, N-(1-(6-amino-5-(4-phenoxyphenyl)pyrimidin-4-yl)piperidin-3-yl)acrylamide] was tested. Which IC50 did it give?
Answer: Its IC50 is over 1000 nM.

Question: Which IC50 does the source give for C=CC(=O)N1CCC(Nc2ncnc(N)c2-c2ccc(Oc3ccccc3)cc2)CC1 [A299, 1-(4-((6-amino-5-(4-phenoxyphenyl)pyrimidin-4-yl)amino)piperidin-1-yl)prop-2-en-1-one] here?
Answer: The IC50 was over 1000 nM.

Question: Which IC50 does the source give for Nc1cccc(-c2c(Oc3ccc(Oc4ccccc4)cc3)ccnc2N)c1 [A300, 3-(3-aminophenyl)-4-(4-phenoxyphenoxy)pyridin-2-amine] here?
Answer: The IC50 was under 1000 nM.

Question: For Nc1ncnc(Oc2ccc(Oc3ccccc3)cc2)c1-c1cccc(NC(=O)/C=C/CN2CCCC(F)(F)C2)c1 [A301, (E)-N-(3-(4-amino-6-(4-phenoxyphenoxy)pyrimidin-5-yl)phenyl)-4-(3,3-difluoropiperidin-1-yl)but-2-enamide], which IC50 is on record?
Answer: The IC50 was over 1000 nM.

Question: With C=CC(=O)NCc1cccc(-c2cnccc2Oc2ccc(Oc3ccccc3)cc2)c1 [A302, N-(3-(4-(4-phenoxyphenoxy)pyridin-3-yl)benzyl)acrylamide] as the molecule, how does the IC50 read?
Answer: The IC50 was over 1000 nM.

Question: For Nc1ccc(Oc2ncnc(N)c2-c2ccc(Oc3ccccc3)cc2)cc1 [A303, 6-(4-aminophenoxy)-5-(4-phenoxyphenyl)pyrimidin-4-amine], which IC50 is on record?
Answer: Its IC50 is over 1000 nM.

Question: With CC#CC(=O)NCc1cccc(-c2cnccc2Oc2ccc(Oc3ccccc3)cc2)c1 [A304, N-(3-(4-(4-phenoxyphenoxy)pyridin-3-yl)benzyl)but-2-ynamide] as the molecule, how does the IC50 read?
Answer: Its IC50 is over 1000 nM.

Question: With Nc1cccc(Oc2ncnc(N)c2-c2ccc(Oc3ccccc3)cc2)c1 [A305, 6-(3-aminophenoxy)-5-(4-phenoxyphenyl)pyrimidin-4-amine] as the molecule, how does the IC50 read?
Answer: Its IC50 is over 1000 nM.

Question: For C/C=C/C(=O)Nc1cccc(-c2cnccc2Oc2ccc(Oc3ccccc3)cc2)c1 [A307, (E)-N-(3-(4-(4-phenoxyphenoxy)pyridin-3-yl)phenyl)but-2-enamide], which IC50 is on record?
Answer: Its IC50 is over 1000 nM.

Question: For CCC(=O)Nc1ccc(Oc2ncnc(N)c2-c2ccc(Oc3ccccc3)cc2)cc1 [A308, N-(4-((6-amino-5-(4-phenoxyphenyl)pyrimidin-4-yl)oxy)phenyl)propionamide], which IC50 is on record?
Answer: Its IC50 is over 1000 nM.

Question: C=CC(=O)NCC1CCCN(c2ncnc(N)c2-c2ccc(Oc3ccccc3)cc2)C1 (stereo not drawn) [A309, N-((1-(6-amino-5-(4-phenoxyphenyl)pyrimidin-4-yl)piperidin-3-yl)methyl)acrylamide] was tested. Which IC50 did it give?
Answer: The IC50 was over 1000 nM.

Question: With CCC(=O)Nc1cccc(-c2c(Oc3ccc(Oc4ccccc4)cc3)ccnc2N)c1 [A310, N-(3-(2-amino-4-(4-phenoxyphenoxy)pyridin-3-yl)phenyl)propionamide] as the molecule, how does the IC50 read?
Answer: The IC50 was over 1000 nM.

Question: For C=CC(=O)Nc1cccc(-c2c(N)ncnc2N[C@H](C)c2ccccc2)c1 [A311, (R)-N-(3-(4-amino-6-((1-phenylethyl)amino)pyrimidin-5-yl)phenyl)acrylamide], which IC50 is on record?
Answer: Its IC50 is over 1000 nM.

Question: For Nc1cccc(-c2cnccc2Oc2ccc(Oc3ccccc3)cc2)c1 [A312, 3-(4-(4-phenoxyphenoxy)pyridin-3-yl)aniline], which IC50 is on record?
Answer: The IC50 was over 1000 nM.

Question: Nc1cccc(Oc2ccnc(N)c2-c2ccc(Oc3ccccc3)cc2)c1 [A313, 4-(3-aminophenoxy)-3-(4-phenoxyphenyl)pyridin-2-amine] was tested. Which IC50 did it give?
Answer: The IC50 was over 1000 nM.

Question: Nc1ccc(-c2cnccc2Oc2ccc(Oc3ccccc3)cc2)cc1 [A314, 4-(4-(4-phenoxyphenoxy)pyridin-3-yl)aniline] was tested. Which IC50 did it give?
Answer: Its IC50 is over 1000 nM.

Question: With NCc1ccc(-c2cnccc2Oc2ccc(Oc3ccccc3)cc2)cc1 [A315, (4-(4-(4-phenoxyphenoxy)pyridin-3-yl)phenyl)methanamine] as the molecule, how does the IC50 read?
Answer: Its IC50 is over 1000 nM.

Question: For NCc1cccc(-c2cnccc2Oc2ccc(Oc3ccccc3)cc2)c1 [A316, (3-(4-(4-phenoxyphenoxy)pyridin-3-yl)phenyl)methanamine], which IC50 is on record?
Answer: Its IC50 is over 1000 nM.

Question: For Nc1cccc(-c2c(N)ncnc2Oc2ccc(Oc3ccccc3)cc2)c1 [A317, 5-(3-aminophenyl)-6-(4-phenoxyphenoxy)pyrimidin-4-amine], which IC50 is on record?
Answer: Its IC50 is over 1000 nM.

Question: With CCC(=O)Nc1cccc(-c2cnccc2Oc2ccc(Oc3ccccc3)cc2)c1 [A319, N-(3-(4-(4-phenoxyphenoxy)pyridin-3-yl)phenyl)propionamide] as the molecule, how does the IC50 read?
Answer: Its IC50 is over 1000 nM.

Question: How did the IC50 turn out when C=C(C)C(=O)Nc1cccc(-c2cnccc2Oc2ccc(Oc3ccccc3)cc2)c1 [A322, N-(3-(4-(4-phenoxyphenoxy)pyridin-3-yl)phenyl)methacrylamide] was run?
Answer: Its IC50 is over 1000 nM.

Question: For CCC(=O)NCc1ccc(-c2cnccc2Oc2ccc(Oc3ccccc3)cc2)cc1 [A324, N-(4-(4-(4-phenoxyphenoxy)pyridin-3-yl)benzyl)propionamide], which IC50 is on record?
Answer: The IC50 was over 1000 nM.

Question: CCC(=O)Nc1cccc(-c2c(N)ncnc2Oc2ccc(Oc3ccccc3)cc2)c1 [A325, N-(3-(4-amino-6-(4-phenoxyphenoxy)pyrimidin-5-yl)phenyl)propionamide] was tested. Which IC50 did it give?
Answer: Its IC50 is over 1000 nM.

Question: Which IC50 does the source give for CCC(=O)Nc1cccc(Oc2ncnc(N)c2-c2ccc(Oc3ccccc3)cc2)c1 [A326, N-(3-((6-amino-5-(4-phenoxyphenyl)pyrimidin-4-yl)oxy)phenyl)propionamide] here?
Answer: Its IC50 is over 1000 nM.

Question: C/C=C/C(=O)NCc1cccc(-c2cnccc2Oc2ccc(Oc3ccccc3)cc2)c1 [A327, (E)-N-(3-(4-(4-phenoxyphenoxy)pyridin-3-yl)benzyl)but-2-enamide] was tested. Which IC50 did it give?
Answer: The IC50 was over 1000 nM.

Question: N#CC1(C(=O)Nc2cccc(Oc3ncnc(N)c3-c3ccc(Oc4ccccc4)cc3)c2)CC1 [A329, N-(3-((6-amino-5-(4-phenoxyphenyl)pyrimidin-4-yl)oxy)phenyl)-1-cyanocyclopropanecarboxamide] was tested. Which IC50 did it give?
Answer: Its IC50 is over 1000 nM.

Question: With CCC(=O)N1CCC(CNc2ncnc(N)c2-c2ccc(Oc3ccccc3)cc2)CC1 [A333, 1-(4-(((6-amino-5-(4-phenoxyphenyl)pyrimidin-4-yl)amino)methyl)piperidin-1-yl)propan-1-one] as the molecule, how does the IC50 read?
Answer: The IC50 was under 1000 nM.

Question: With C=CC(=O)N1CCC(CNc2ncncc2-c2ccc(Oc3ccccc3)cc2)CC1 [A334, 1-(4-(((5-(4-phenoxyphenyl)pyrimidin-4-yl)amino)methyl)piperidin-1-yl)prop-2-en-1-one] as the molecule, how does the IC50 read?
Answer: The IC50 was under 100 nM.

Question: For C=CC(=O)N1CCC(CNc2ncnc(N)c2-c2ccc(Oc3ccccn3)cc2)CC1 [A335, 1-(4-(((6-amino-5-(4-(pyridin-2-yloxy)phenyl)pyrimidin-4-yl)amino)methyl)piperidin-1-yl)prop-2-en-1-one], which IC50 is on record?
Answer: Its IC50 is under 1000 nM.

Question: Which IC50 does the source give for Nc1ncnc(NCC2CCN(c3cccc(Cl)n3)CC2)c1-c1ccc(Oc2ccccc2)cc1 [A337, N4-((1-(6-chloropyridin-2-yl)piperidin-4-yl)methyl)-5-(4-phenoxyphenyl)pyrimidine-4,6-diamine] here?
Answer: The IC50 was over 1000 nM.

Question: Which IC50 does the source give for C=CC(=O)N1CCC(COc2ncnc(N)c2-c2ccc(Oc3ccccc3)cc2)CC1 [A338, 1-(4-(((6-amino-5-(4-phenoxyphenyl)pyrimidin-4-yl)oxy)methyl)piperidin-1-yl)prop-2-en-1-one] here?
Answer: Its IC50 is under 1000 nM.

Question: C=CC(=O)Nc1cccc(Oc2ncnc(N)c2-c2cc(F)c(OCc3ccccc3)cc2F)c1 [A339, N-(3-((6-amino-5-(4-(benzyloxy)-2,5-difluorophenyl)pyrimidin-4-yl)oxy)phenyl)acrylamide] was tested. Which IC50 did it give?
Answer: The IC50 was under 100 nM.

Question: How did the IC50 turn out when CC#CC(=O)Nc1cccc(Oc2ccnc(N)c2-c2ccc(Oc3ccccc3)cc2)c1 [A340, N-(3-((2-amino-3-(4-phenoxyphenyl)pyridin-4-yl)oxy)phenyl)but-2-ynamide] was run?
Answer: Its IC50 is under 100 nM.

Question: With Nc1ncnc(Oc2cccc(NC(=O)CCl)c2)c1-c1ccc(Oc2ccccc2)cc1 [A342, N-{3-[6-Amino-5-(4-phenoxy-phenyl)-pyrimidin-4-yloxy]-phenyl}-2-chloroacetamide] as the molecule, how does the IC50 read?
Answer: Its IC50 is under 100 nM.

Question: For C=CC(=O)Nc1cccc(Oc2ncnc(N)c2-c2ccc(OCc3ccc(F)cc3)cc2)c1 [A344, N-(3-{6-Amino-5-[4-(4-fluoro-benzyloxy)-phenyl]-pyrimidin-4-yloxy}-phenyl)-acrylamide], which IC50 is on record?
Answer: Its IC50 is under 100 nM.

Question: Which IC50 does the source give for Nc1ncnc(Oc2cccc(NC(=O)CCl)c2)c1-c1ccc(OCc2cccc(F)c2)cc1 [A345, N-(3-{6-Amino-5-[4-(3-fluoro-benzyloxy)-phenyl]-pyrimidin-4-yloxy}-phenyl)-2-chloro-acetamide] here?
Answer: The IC50 was under 100 nM.

Question: For CCC(=O)Nc1cccc(Oc2ncnc(N)c2-c2ccc(OCc3ccccc3)cc2)c1 [A346, N-{3-[6-Amino-5-(4-benzyloxy-phenyl)-pyrimidin-4-yloxy]-phenyl}-propionamide], which IC50 is on record?
Answer: Its IC50 is under 100 nM.

Question: How did the IC50 turn out when Nc1ncnc(Oc2cccc(NC(=O)CCl)c2)c1-c1ccc(OCc2ccccc2)cc1 [A347, N-{3-[6-Amino-5-(4-benzyloxy-phenyl)-pyrimidin-4-yloxy]-phenyl}-2-chloro-acetamide] was run?
Answer: Its IC50 is under 100 nM.

Question: For C=CC(=O)Nc1cccc(Oc2ncnc(N)c2-c2ccc(OCc3ccccc3)c(F)c2)c1 [A348, N-{3-[6-Amino-5-(4-benzyloxy-3-fluoro-phenyl)-pyrimidin-4-yloxy]-phenyl}-acrylamide], which IC50 is on record?
Answer: The IC50 was under 100 nM.

Question: For C=CC(=O)Nc1cccc(Oc2ncnc(N)c2-c2ccc(OCc3ccccc3)cc2F)c1 [A349, N-{3-[6-Amino-5-(4-benzyloxy-2-fluoro-phenyl)-pyrimidin-4-yloxy]-phenyl}-acrylamide], which IC50 is on record?
Answer: The IC50 was under 100 nM.

Question: With Nc1ncnc(Oc2cccc(NC(=O)CCl)c2)c1-c1ccc(OCc2ccccc2)cc1F [A350, N-{3-(6-Amino-5-(4-benzyloxy-2-fluoro-phenyl)-pyrimidin-4-yloxy}-phenyl)-2-chloro-acetamide] as the molecule, how does the IC50 read?
Answer: Its IC50 is under 100 nM.

Question: With Nc1ncnc(Oc2cccc(NC(=O)CCl)c2)c1-c1ccc(OCc2ccccc2)c(F)c1 [A351, N-{3-[6-Amino-5-(4-benzyloxy-3-fluoro-phenyl)-pyrimidin-4-yloxy]-phenyl}-2-chloro-acetamide] as the molecule, how does the IC50 read?
Answer: Its IC50 is under 100 nM.

Question: For C=CC(=O)Nc1cccc(Oc2ncnc(N)c2-c2ccc(NC(=O)c3ccccc3)cc2)c1 [A352, N-{4-[4-(3-Acryloylamino-phenoxy)-6-amino-pyrimidin-5-yl]-phenyl}-benzamide], which IC50 is on record?
Answer: The IC50 was under 100 nM.

test system: PBMC; assay: Time Dependent PBMC IC50 assay; assay type: cell-based; settings: not given
Procedure: Compounds described by embodiments of the present invention were assayed using a time dependent PMBC assay.

Question: How did the IC50 turn out when C=CC(=O)N[C@@H]1CCC[C@H](Nc2ncnc(N)c2-c2ccc(Oc3ccccc3)cc2)C1 (relative stereo) [A51, N-(cis-3-((6-amino-5-(4-phenoxyphenyl)pyrimidin-4-yl)amino)cyclohexyl)acrylamide] was run?
Answer: The IC50 was under 1000 nM.
